We go through ten compounds from patent US20250115628A1, “FLUORINATED FLUOROPHORES” (HOWARD HUGHES MEDICAL INSTITUTE, priority 2023, published 2025).

For series [1], the system named is U2OS cells stably expressing HaloTag®-histone H2B fusion protein. Kind of series: Loading experiments with NIR-excited HaloTag® ligands (nuclear fluorescence). The format is cell-based. Conditions: 200 nM, live cells expressing HaloTag®-histone H2B. Here is the method:
(§1) U2OS cells (ATCC) and U2OS cells stably expressing an integrated HaloTag®-histone H2B fusion protein (U2OS·H2B·HaloTag®) were cultured in Dulbecco's modified Eagle medium (DMEM, phenol red-free; Life Technologies) supplemented with 10% (v/v) fetal bovine serum (FBS, Life Technologies), 1 mM GlutaMAX (Life Technologies) and maintained at 37° C. in a humidified 5% (v/v) CO2 environment. These cell lines undergo regular mycoplasma testing by the Janelia Cell Culture Facility. For mitochondrial imaging using the HaloTag® system, U2OS cells were transiently transfected using nucleofection (Lonza) with a plasmid constitutively expressing a HaloTag®-TOMM20 fusion protein, which is located on the outer mitochondrial membrane. For 4^−color imaging, U2OS·H2B·HaloTag® stable cells were transiently transfected by nucleofection with plasmids constitutively expressing a SNAP-tag®-TOMM20 fusion protein, and a GFP-SKL (SKL: serine-lysine-leucine) fusion protein, a prototypical peroxisomal matrix targeting signal. All labeled cells were imaged 18-24 h post-transfection or post-plating.
For loading curve experiments (FIG. 15C), U2OS·H2B·HaloTag® stable cells were incubated with 200 nM HaloTag® ligand conjugated dyes (31HTL, 36HTL, 38HTL, 104HTL, 106HTL, 107HTL, and 108HTL) for 0-4 h at 37° C., washed 3× with dye-free media then fixed with 4% paraformaldehyde in 0.1 M phosphate buffer, pH 7.4 for 15 min at 37° C. Confocal imaging was performed on a Leica Stellaris with an HC PL APO 40×/1.25 glycerol objective using the tunable white light laser (WLL) to excite dyes at their λabs in constant power mode. Fluorescence was quantified as the integrated density of nuclear signals in single-plane images analyzed in FIJI;^82 n=100 nuclear signals per compound.

For series [2] the test system is unchanged. Kind of series: Photostability experiments in fixed cells. In kind it is cell-based. To be noted: 200 nM; 30 bleach cycles. Here is the method:
as §1, with “For 4^−color imaging, U2OS·H2B·HaloTag® stable cells were transiently transfected by nucleofection with plasmids constitutively expressing a SNAP-tag®-TOMM20 fusion protein, and a GFP-SKL (SKL: serine-lysine-leucine) fusion protein, a prototypical peroxisomal matrix targeting signal. All labeled cells were imaged 18-24 h post-transfection or post-plating.” left out
For photostability experiments (FIG. 1611), U2OS·H2B·HaloTag® stable cells were incubated with 200 nM HaloTag® ligands (31HTL, 106HTL, and 107HTL) for 3 h at 37° C., washed 3× with dye-free media then fixed with 4% paraformaldehyde in 0.1 M phosphate buffer, pH 7.4 for 15 min at 37° C. […] To measure photobleaching, the tunable white light laser (WLL) was used to excite dyes at their λabs in constant power mode over 30 cycles; n=3 where n indicates the number of separate cellular experiments where the intensity of the entire field of view was measured at the indicated time points. […]

Series [3] has as its system JM8·N4 mouse embryonic stem cells stably expressing histone H2B-HaloTag® fusion proteins. Description: Single-particle tracking (SPT) experiments. Conditions: 100 Hz imaging. The format is cell-based. Here is the method:
SPT experiments were carried out as previously described.^84 JM8·N4 mouse embryonic stem cells (ESCs) stably expressing histone H2B-HaloTag® fusion proteins were generated by co-expressing the PiggyBac EF1a-H2B-HaloTag®-IRES-Neo vector with the super piggyBac transposase as described previously,85 followed by G418 selection (500 μg/mL) for 2 weeks and verified by FACS sorting/confocal imaging staining with JF549-HaloTag® ligand (84HTL; 100 nM, 30 min). Cells were seeded on 25 mm #1.5 coverglass pre-cleaned with KOH and ethanol and coated with iMatrix-511 (TaKaRa #T304) or rhLaminin-521 (Gibco™ #A^29248) according to the manufacturers' instruction. All live-cell imaging experiments were conducted using an ESC imaging medium composed of FluoroBrite DMEM (ThermoFisher) plus 15% v/v ESC-qualified FBS, 1× GlutaMax, 1×NEAA, 0.1 mM 2^−mercaptoethanol, and LIF. For comparison of 59HTL and 89HTL (FIG. 13E, 13F) the histone H2B-HaloTag® ESCs were stained with 5 nM 59HTL for 1 h or 0.1 nM 89HTL for 15 min at 37° C. with 5% (v/v) CO2 to achieve sparse labeling with approximately equal localizations per region of interest (ROI), and then washed with dye-free media 3× for 30 min each wash For comparison of 40HTL, 44HTL, 1HTL, or 89HTL (FIG. 12A-12G) the histone H2B-HaloTag® ESCs were stained with 1 nM of HaloTag® ligands for 15 min at 37° C. with 5% (v/v) CO2 to achieve sparse labeling, and then washed with dye-free media 3× for 30 min each wash.
To quantify the brightness and photostability of the HaloTag® ligands, labeled cells were mounted onto a high speed motorized Nikon Eclipse Ti-E inverted microscope equipped with the following: 100× Apo TIRF 1.49 NA objective with a correction collar; four excitation laser lines (405/488/561/642 nm) and matching TIRF quad cube (405/488/561/640 nm reflection bands); automatic TIRF illuminator with motorized X axis and manual Y axis for beam positioning and focus: perfect focus 3 system; Triple DU-897 iXon Ultra EMCCD cameras on a Cairn Tri-cam emission splitter with filters 525/50 (GFP) 600/50 (RFP) and 705/72 (Cy5); humidified incubation chamber maintained at 37° C. with 5% v/v CO2 (Tokai Hit). SPT was performed at 100 Hz for the comparison of 59HTL and 89HTL (FIG. 13E, 13F) and 50 Hz for the comparison of 40HTL, 44HTL, 1HTL, or 89HTL (FIG. 12A-12G); the imaging session was performed for ˜5000 frames using 100% of maximal excitation power (˜120 mW at the fiber end before the TIRF unit). […] For the comparison of HaloTag® ligands 59HTL and 89HTL (FIG. 13E, 13F) and the comparison of compounds 40HTL, 44HTL, 1HTL, and […] (FIG. 12A-12G), the fluorophores were excited with a 647 nm laser. To minimize drift during imaging, the incubation chamber was fully thermally equilibrated, and all imaging was conducted in an isolated ultra-clean room with minimal mechanical vibrations. The microscope, laser lines, and camera integration were controlled using the Nikon NIS-Elements software. Cells with obvious movement during acquisition were removed from further analysis. SMT analysis was based on multiple target tracing 86 (MTT) with tracking parameters similar to previous work.^84 For SPT brightness (photon counts/molecule/s), intensity values from sparsely-labeled molecules were analyzed. For the comparison of HaloTag® ligands 59HTL and 89HTL (FIG. 13E, 13F): n=147,298 single-molecule events using 59HTL; n=100,392 single-molecule events using 89HTL. […]

For series [4], the target named is T1, U2OS cells stably expressing HaloTag®-histone H2B fusion protein (Rhodococcus rhodochrous, UniProt P0A3G2, A155T/A167V/A172T/A224E/C128F/C176G/D78G/E160K/E257K/H272N/K175M/K195N/L47V/L88M/N227D/P291S/S58T/T264A/Y273L/Y87F).
T1 construct: expressed in transfected cells
T1 sequence (P0A3G2 other isoform, or with tags, fused parts or gaps with the stated changes): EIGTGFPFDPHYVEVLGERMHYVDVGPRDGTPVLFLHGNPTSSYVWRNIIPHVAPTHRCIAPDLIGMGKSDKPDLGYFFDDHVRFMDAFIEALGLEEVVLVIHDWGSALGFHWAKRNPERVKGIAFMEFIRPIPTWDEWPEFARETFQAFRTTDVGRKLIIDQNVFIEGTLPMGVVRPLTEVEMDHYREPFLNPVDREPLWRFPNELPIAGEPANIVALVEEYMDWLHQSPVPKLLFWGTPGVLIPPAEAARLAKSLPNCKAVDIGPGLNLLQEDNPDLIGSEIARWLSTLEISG
Kind of series: Labeling and confocal microscopy using ligands 59HTL and 105HTL. In kind it is cell-based. To be noted: 200 nM, 1 h, washed. Here is the method: as §1, with “post-plating. […]” for “post-plating.”

For series [5] the following is noted: fluorescein derivatives; 0.1 N NaOH; data from the inventors' published work; cited from earlier work.
The conditions of series [6]: Hill coefficient; data from the inventors' published work; cited from earlier work.
The conditions of series [7]: fluorescein derivatives; 0.1 N NaOH; data from the inventors' published work; cited from earlier work. The source holds these as a separate data set.

With `CCc1cc2c(c3c1=[N+](C)CCC3)[Si](C)(C)c1c(cc3c4c1CCCN4CCC3)C=2c1c(F)c(C(=O)NCCOCCOCCCCCCCl)c(F)c(F)c1C(=O)[O-]` [31HTL, JF698-HaloTag® ligand], in series [1] (excited at λabs), the “nuclear intensity compared to the other ligands” value is reported as over 3 fold. Also, in series [2], the “brightness and photostability compared with 107HTL and 106HTL” value was “brighter and more photostable”.
Regarding `CCc1cc2c(c3c1=[N+](C)CCC3)C(C)(C)c1cc3c(cc1C=2c1c(F)c(C(=O)NCCOCCOCCCCCCCl)c(F)c(F)c1C(=O)[O-])C(C)CC(C)(C)N3CC` (stereo not drawn) [59HTL, JF657-HaloTag® ligand], in series [3], the “SPT brightness (photons/s) compared with 89HTL” value is given as “significant improvement in brightness” and the “SPT localizations over time” value is listed as “consistent localizations over time”. Moreover, the “nuclear labeling of histone H2B-HaloTag® in live cells” value in series [4] was “excellent nuclear staining with little cellular background after washing”.
As for `CC1=CC(C)(C)N(C)c2cc3c(cc21)C(c1cc(C(=O)NCCOCCOCCCCCCCl)ccc1C(=O)[O-])=c1cc2c(cc1[Si]3(C)C)=[N+](C)C(C)(C)C=C2C` [104HTL, 4^−((2-(2^−((6^−Chlorohexyl)oxy)ethoxy)ethyl)carbamoyl)-2^−(1,2,2,4,8,10,10,11,13,13^−decamethyl-2,10,11,13^−tetra-hydrosilino[3,2^−g:5,6^−g′]diquinolin-6^−ylium-6(1H)-yl)benzoate], the cellular intensity result in series [1] is recorded as “relatively low intensity”.
Take `CN1CCc2cc3c(cc21)[Si](C)(C)c1cc2c(cc1=C3c1c(F)c(C(=O)NCCOCCOCCCCCCCl)c(F)c(F)c1C(=O)[O-])CC[N+]=2C` [108HTL, SiRF712-HaloTag® ligand]: in series [1], the cellular intensity entry is on record as “second highest cellular intensity”.
Turning to `CC1(C)c2cc(O)ccc2C2(OC(=O)c3ccccc32)c2ccc(O)cc21` [compound 74, carbofluorescein], the Φf in series [5] is recorded as 0.62. Further, the ηH in series [6] is given as 1.65. Further, in series [7], the ε is given as 108,000 M^−1cm^−1, the λabs was 544 nm and the λem is 567 nm.
`C[Si]1(C)c2cc(O)ccc2C2(OC(=O)c3ccccc32)c2ccc(O)cc21` [compound 75]: in series [5], the Φf is 0.53. In series [6], the ηH was 1.69. In addition, in series [7], the ε is on record as 93,000 M^−1cm^−1, the λabs is 579 nm and the λem was 599 nm.
For `CC1(C)c2cc(O)c(F)cc2C2(OC(=O)c3ccccc32)c2cc(F)c(O)cc21` [compound 78, Virginia Orange], in series [5], the Φf is 0.40. The ηH in series [6] was 1.46. In series [7], the ε is 90,900 M^−1cm^−1, the λabs was 555 nm and the λem is recorded as 581 nm.
For `C[Si]1(C)c2cc(O)c(F)cc2C2(OC(=O)c3ccccc32)c2cc(F)c(O)cc21` [compound 79], the Φf in series [5] was 0.42. For the same compound, the ηH in series [6] is on record as 1.30. Also, in series [7], the ε was 60,900 M^−1cm^−1, the λabs is 596 nm and the λem was 618 nm.
For `C[Si]1(C)c2cc(O)c(F)cc2C2(OC(=O)c3c(F)c(F)c(F)c(F)c32)c2cc(F)c(O)cc21` [compound 80], the Φf in series [5] was 0.32. Moreover, in series [6], the ηH is reported as 1.50. Further, in series [7], the ε is reported as 67,900 M^−1cm^−1, the λabs was 617 nm and the λem is recorded as 635 nm.
In the case of “ATTO 647N-HaloTag® ligand [105HTL, reference compound]”, the “nuclear labeling of histone H2B-HaloTag® in live cells” value in series [4] is on record as “does not show appreciable labeling in the nucleus”.
